Test results: PubChem BioAssay AID1963983 (Molecular Pharmacology Branch, DTP, NCI, 2024)
Values joined by “and” are separate entries in the source; they are usually repeats but may differ in a detail not shown here. Equal values may be shown once.

Test system: 186277-243-T-J2-PDC multi-cell spheroid viability
Assay: Anticancer human tumor 186277-243-T-J2-PDC patient-derived colon adenocarcinoma cell line growth inhibition [PI3K]
Conditions: for viability, T/C: stronger effect = lower value
Excerpt: Combinatorial screen of targeted agents with the PI3K inhibitors inavolisib, alpelisib, duvelisib, and copanlisib in multi-cell type tumor spheroids
A high-throughput screen of multi-cell type tumor spheroids was designed to identify active combinations of targeted small molecules and PI3K pathway inhibitors. Complex spheroids include a stromal component modeled by human endothelial cells (HUVEC) and fibroblasts modeled by human mesenchymal stem cells (MSCs). The concentration ranges selected for each drug and investigational agent were based upon clinically achievable concentrations if the clinical Cmax of the agent was known.
Compounds. The drugs and investigational agents: inavolisib (NSC800729), alpelisib (NSC765974), duvelisib (NSC772469), copanlisib (NSC816437), ipatasertib (NSC767898), afuresertib (NSC778305), talazoparib (NSC767125), sapanisertib (NSC764658), selumetinib (NSC741078), tovorafenib (DAY101, NSC766906), vemurafenib (NSC761431), ravoxertinib (NSC781343), sotorasib (NSC818433), MRTX1133 (NSC 836407), abemaciclib (NSC 768073), palbociclib (NSC758247), venetoclax (NSC 766270), SY5609 (NSC837396), enzalutamide (NSC755605), and darolutamide (NSC825331), were obtained from the National Cancer Institute (NCI) Developmental Therapeutics Program Chemical Repository. The FDA-approved anticancer drug set is available from the NCI Developmental Therapeutics Program. […] The stock solutions were prepared in dimethyl sulfoxide (DMSO, Sigma-Aldrich, St. Louis, MO, cat. D2650) at 800-fold the tested concentration and stored at -70 degrees C prior to their use. All drugs and investigational agents were tested over a range starting from a high concentration at or near the clinical Cmax and decreasing in half-log increments. If the clinical Cmax for an agent had not been determined, the highest concentration tested was 10 microM.
Cell Culture. All cells were maintained in an incubator at 37 degrees C and 5% CO2 with 95% humidity. The PDC lines were cultured according to standard operating procedures established by the NCI PDMR (https://pdmr.cancer.gov/sops/default.htm). All PDCs were thawed and cultured in Matrigel-coated flasks prepared with a working solution of 1X Ham's F-12 nutrient mix, without supplementation (Invitrogen, Waltham, MA, cat. 11765054), 100 U/mL penicillin-streptomycin (Invitrogen, cat. 15140122), and 2.5% Matrigel (Corning Inc., Corning, NY, cat. 354248) for the first three passages. The 354836-022-R-J1-PDC, 475296-252-R-J1-PDC, and 997726-040-R-J2-PDC lines were cultured in 6A media, which includes advanced DMEM/F-12 (Thermo Fisher Scientific, cat. 12634028), 10 mM HEPES (Thermo Fisher Scientific, cat. 15630080), 1X GlutaMAX supplement (Thermo Fisher Scientific, cat. 35050061), 0.1 mg/mL primocin (InvivoGen, San Diego, CA, cat. ant-pm-2), 10% defined fetal bovine serum, heat inactivated (HyClone Laboratories Inc., Logan, UT, cat. SH30070.03HI), 50% L-WRN conditioned media (ATCC, cat. CRL-3276), 1.25 mM N-Acetyl-L-cysteine (Sigma-Aldrich, cat. A9165), 10 mM nicotinamide (Sigma-Aldrich, cat. N0636), 1X B-27 supplement (Thermo Fisher Scientific, cat. 17504044), 1X N-2 supplement (Thermo Fisher Scientific, cat. 17502048), and 10 microM Y-27632 dihydrochloride (Tocris Bioscience, Bristol, United Kingdom, cat. 1254). The 624824-186-R-J2-PDC line was cultured in 6C/Colon 1B media, which includes all 6A media components plus 50 ng/mL human EGF recombinant protein (Thermo Fisher Scientific, cat. PHG0311). […]

[1] = curve of first compound, second compound 0.0316 µM
[2] = curve of first compound, second compound 0.1 µM
[3] = curve of first compound, second compound 0.316 µM
[4] = curve of first compound, second compound 1 µM
[5] = curve of first compound, second compound 3.16 µM
[6] = curve of first compound, second compound 10 µM
[7] = second compound 0.0316 µM, first compound 0.0316 µM
[8] = second compound 0.0316 µM, first compound 0.1 µM
[9] = second compound 0.0316 µM, first compound 0.316 µM
[10] = second compound 0.0316 µM, first compound 1 µM
[11] = second compound 0.1 µM, first compound 0.0316 µM
[12] = second compound 0.1 µM, first compound 0.1 µM
[13] = second compound 0.1 µM, first compound 0.316 µM
[14] = second compound 0.1 µM, first compound 1 µM
[15] = second compound 0.316 µM, first compound 0.0316 µM
[16] = second compound 0.316 µM, first compound 0.1 µM
[17] = second compound 0.316 µM, first compound 0.316 µM
[18] = second compound 0.316 µM, first compound 1 µM
[19] = second compound 1 µM, first compound 0.0316 µM
[20] = second compound 1 µM, first compound 0.1 µM
[21] = second compound 1 µM, first compound 0.316 µM
[22] = second compound 1 µM, first compound 1 µM
[23] = second compound 3.16 µM, first compound 0.0316 µM
[24] = second compound 3.16 µM, first compound 0.1 µM
[25] = second compound 3.16 µM, first compound 0.316 µM
[26] = second compound 3.16 µM, first compound 1 µM
[27] = second compound 10 µM, first compound 0.0316 µM
[28] = second compound 10 µM, first compound 0.1 µM
[29] = second compound 10 µM, first compound 0.316 µM
[30] = second compound 10 µM, first compound 1 µM
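Note: spheroids exposed to compounds for seven days before viability reading.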
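Throughout, for viability, T/C: 100% = DMSO vehicle control viability.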

For `CCN1CCN(Cc2ccc(Nc3ncc(F)c(-c4cc(F)c5nc(C)n(C(C)C)c5c4)n3)nc2)CC1` + CC(Nc1ncnc2nc[nH]c12)c1cc2cccc(Cl)c2c(=O)n1-c1ccccc1, the IC50 [1] was greater than 1 µM, the IC50 [2] was greater than 1 µM and the IC50 [3] was greater than 1 µM. The IC50 [4] was greater than 1 µM, the IC50 [5] was greater than 1 µM and the IC50 [6] was greater than 1 µM. For the same compound, the viability, T/C (second compound 0.0316 µM, first compound 0.00316 µM) was 94.6%, the viability, T/C (second compound 0.0316 µM, first compound 0.01 µM) was 85.9% and the viability, T/C [7] was 104%. For the same compound, the viability, T/C [8] was 108%, the viability, T/C [9] was 166% and the viability, T/C [10] was 160%. For the same compound, the viability, T/C (second compound 0.1 µM, first compound 0.00316 µM) was 98.9%, the viability, T/C (second compound 0.1 µM, first compound 0.01 µM) was 84% and the viability, T/C [11] was 103%. It also gave a viability, T/C [12] of 120%, a viability, T/C [13] of 148% and a viability, T/C [14] of 148%. The viability, T/C (second compound 0.316 µM, first compound 0.00316 µM) was 93.5%, the viability, T/C (second compound 0.316 µM, first compound 0.01 µM) was 97.6% and the viability, T/C [15] was 100%. The viability, T/C [16] was 124%, the viability, T/C [17] was 136% and the viability, T/C [18] was 143%. For the same compound, the viability, T/C (second compound 1 µM, first compound 0.00316 µM) was 104%, the viability, T/C (second compound 1 µM, first compound 0.01 µM) was 99.4% and the viability, T/C [19] was 104%. For the same compound, the viability, T/C [20] was 120%, the viability, T/C [21] was 155% and the viability, T/C [22] was 129%. For the same compound, the viability, T/C (second compound 3.16 µM, first compound 0.00316 µM) was 102%, the viability, T/C (second compound 3.16 µM, first compound 0.01 µM) was 107% and the viability, T/C [23] was 100%. For the same compound, the viability, T/C [24] was 119%, the viability, T/C [25] was 124% and the viability, T/C [26] was 108%. For the same compound, the viability, T/C (second compound 10 µM, first compound 0.00316 µM) was 78.3%, the viability, T/C (second compound 10 µM, first compound 0.01 µM) was 88% and the viability, T/C [27] was 95.9%. For the same compound, the viability, T/C [28] was 97.7%, the viability, T/C [29] was 102% and the viability, T/C [30] was 78.3%.

In the case of `CC(C)NCC(C(=O)N1CCN(c2ncnc3c2C(C)CC3O)CC1)c1ccc(Cl)cc1` (stereo not drawn), the viability, T/C (compound 0.0316 µM) is reported as 93.8% [middle of 4 runs], the viability, T/C (compound 0.1 µM) is reported as 88.2% [middle of 4 runs] and the viability, T/C (compound 0.316 µM) is reported as 77.6% [middle of 4 runs]. The viability, T/C (compound 1 µM) was 55.6% [middle of 4 runs], the viability, T/C (compound 3.16 µM) was 45.9% [middle of 4 runs] and the viability, T/C (compound 10 µM) was 28.2% (2×) and 31.3% and 28.7%. For the same compound, the IC50 (curve of compound) was 1.99 µM [middle of 4 runs].

With `Cn1nccc1Nc1nccc(-c2ccn(C(CO)c3ccc(Cl)c(F)c3)c(=O)c2)n1` (stereo not drawn) the viability, T/C (compound 0.0316 µM) was 96.2% [middle of 4 runs], the viability, T/C (compound 0.1 µM) was 102% and 103% (2×) and 105% and the viability, T/C (compound 0.316 µM) was 99.2% [middle of 4 runs]. The viability, T/C (compound 1 µM) was 81% [middle of 4 runs], the viability, T/C (compound 3.16 µM) was 37.2% [middle of 4 runs] and the viability, T/C (compound 10 µM) was 26.7% [middle of 4 runs]. For the same compound, the IC50 (curve of compound) was 2.35 µM [middle of 4 runs].

`CCCS(=O)(=O)Nc1ccc(F)c(C(=O)c2c[nH]c3ncc(-c4ccc(Cl)cc4)cc23)c1F` + CC(Nc1ncnc2nc[nH]c12)c1cc2cccc(Cl)c2c(=O)n1-c1ccccc1 gave an IC50 [1] of 5.69 µM, an IC50 [2] of 5.06 µM and an IC50 [3] of 4.97 µM. It also gave an IC50 [4] of 5.21 µM, an IC50 [5] of 5.3 µM and an IC50 [6] of 5.48 µM. For the same compound, the viability, T/C [7] was 85.8%, the viability, T/C [8] was 96.6% and the viability, T/C [9] was 105%. For the same compound, the viability, T/C [10] was 85.6%, the viability, T/C (second compound 0.0316 µM, first compound 3.16 µM) was 96.5% and the viability, T/C (second compound 0.0316 µM, first compound 10 µM) was 7.89%. It also gave a viability, T/C [11] of 97.5%, a viability, T/C [12] of 103% and a viability, T/C [13] of 93.2%. It also gave a viability, T/C [14] of 77.8%, a viability, T/C (second compound 0.1 µM, first compound 3.16 µM) of 83.7% and a viability, T/C (second compound 0.1 µM, first compound 10 µM) of 7.36%. The viability, T/C [15] was 97.3%, the viability, T/C [16] was 109% and the viability, T/C [17] was 87%. The viability, T/C [18] was 94.5%, the viability, T/C (second compound 0.316 µM, first compound 3.16 µM) was 76.5% and the viability, T/C (second compound 0.316 µM, first compound 10 µM) was 10.1%. It also gave a viability, T/C [19] of 86.7%, a viability, T/C [20] of 98.1% and a viability, T/C [21] of 95.5%. The viability, T/C [22] was 94%, the viability, T/C (second compound 1 µM, first compound 3.16 µM) was 82.3% and the viability, T/C (second compound 1 µM, first compound 10 µM) was 7.72%. The viability, T/C [23] was 113%, the viability, T/C [24] was 94.6% and the viability, T/C [25] was 90.6%. It also gave a viability, T/C [26] of 91%, a viability, T/C (second compound 3.16 µM, first compound 3.16 µM) of 84.8% and a viability, T/C (second compound 3.16 µM, first compound 10 µM) of 9.36%. It also gave a viability, T/C [27] of 108%, a viability, T/C [28] of 104% and a viability, T/C [29] of 106%. The viability, T/C [30] was 105%, the viability, T/C (second compound 10 µM, first compound 3.16 µM) was 87.6% and the viability, T/C (second compound 10 µM, first compound 10 µM) was 8.89%.
